Source: the NIST ThermoML archive (doi:10.1021/je049943s)
± gives the expanded uncertainty stated by the source.

Tests used:
[1] = 101.33 kPa, Liquid
[2] = excess molar enthalpy (molar enthalpy of mixing); xn = mol fraction of the nth substance listed; conditions: 308.15 K, 101.33 kPa, Liquid

CC(O)CO (stereo unspecified) [1,2-propanediol]
Conditions | mass density [kg/m3]
[1], 308.15 K | 1026.15 ± 0.53

OCCc1ccccc1 [2-phenylethanol]
Conditions | mass density [kg/m3]
[1], 308.15 K | 1008.68 ± 0.51

OCCc1ccccc1 [2-phenylethanol] + CC(O)CO
[2]
Conditions | excess molar enthalpy [kcal/mol]
x2 = 0.0637 | 0.0251 ± 0.000765
x2 = 0.1198 | 0.0403 ± 0.001
x2 = 0.1695 | 0.0483 ± 0.00112
x2 = 0.2139 | 0.0548 ± 0.00124
x2 = 0.2858 | 0.0599 ± 0.00134
x2 = 0.3525 | 0.0608 ± 0.00134
x2 = 0.4495 | 0.0582 ± 0.00129
x2 = 0.5212 | 0.0576 ± 0.00129
x2 = 0.6201 | 0.0539 ± 0.00122
x2 = 0.7101 | 0.0509 ± 0.00117
x2 = 0.7656 | 0.0473 ± 0.00112
x2 = 0.8305 | 0.0397 ± 0.00098
x2 = 0.8672 | 0.0339 ± 0.000908
x2 = 0.9074 | 0.0266 ± 0.000789
x2 = 0.9289 | 0.0212 ± 0.000693
x2 = 0.9494 | 0.0158 ± 0.000621
x2 = 0.9751 | 0.00853 ± 0.000502

OCCc1ccccc1 [2-phenylethanol] + OCCO
[2]
Conditions | excess molar enthalpy [kcal/mol]
x2 = 0.0823 | 0.0254 ± 0.000765
x2 = 0.1521 | 0.0386 ± 0.000956
x2 = 0.212 | 0.0456 ± 0.00108
x2 = 0.264 | 0.0486 ± 0.00112
x2 = 0.3498 | 0.0495 ± 0.00115
x2 = 0.4177 | 0.0478 ± 0.00112
x2 = 0.5183 | 0.0467 ± 0.0011
x2 = 0.5892 | 0.0446 ± 0.00108
x2 = 0.6827 | 0.0408 ± 0.001
x2 = 0.7635 | 0.036 ± 0.000932
x2 = 0.8115 | 0.0313 ± 0.00086
x2 = 0.8659 | 0.0257 ± 0.000765
x2 = 0.8959 | 0.0214 ± 0.000693
x2 = 0.9281 | 0.0168 ± 0.000621
x2 = 0.9451 | 0.0134 ± 0.000574
x2 = 0.9627 | 0.00989 ± 0.000526
x2 = 0.981 | 0.00507 ± 0.000454

OCCc1ccccc1 [2-phenylethanol] + OCCOCCO
[2]
Conditions | excess molar enthalpy [kcal/mol]
x2 = 0.05 | -0.0263 ± 0.000789
x2 = 0.0952 | -0.0434 ± 0.00105
x2 = 0.1363 | -0.0541 ± 0.00122
x2 = 0.1738 | -0.0613 ± 0.00136
x2 = 0.2399 | -0.0675 ± 0.00146
x2 = 0.2961 | -0.0721 ± 0.00153
x2 = 0.3869 | -0.0735 ± 0.00155
x2 = 0.4569 | -0.0727 ± 0.00155
x2 = 0.5579 | -0.0712 ± 0.00153
x2 = 0.6544 | -0.0684 ± 0.00148
x2 = 0.7163 | -0.0652 ± 0.00141
x2 = 0.7911 | -0.0577 ± 0.00129
x2 = 0.8347 | -0.0503 ± 0.00117
x2 = 0.8834 | -0.0401 ± 0.00098
x2 = 0.9099 | -0.0355 ± 0.000932
x2 = 0.9381 | -0.0248 ± 0.000765
x2 = 0.968 | -0.0131 ± 0.000574

OCCc1ccccc1 [2-phenylethanol] + OCCOCCOCCO
[2]
Conditions | excess molar enthalpy [kcal/mol]
x2 = 0.036 | -0.0244 ± 0.000741
x2 = 0.0695 | -0.0421 ± 0.00103
x2 = 0.1008 | -0.0542 ± 0.00122
x2 = 0.13 | -0.0622 ± 0.00136
x2 = 0.1832 | -0.0713 ± 0.00153
x2 = 0.2296 | -0.0755 ± 0.0016
x2 = 0.3096 | -0.079 ± 0.00165
x2 = 0.3741 | -0.0801 ± 0.00167
x2 = 0.4728 | -0.0805 ± 0.00167
x2 = 0.5737 | -0.0778 ± 0.00163
x2 = 0.6421 | -0.0755 ± 0.0016
x2 = 0.7346 | -0.0676 ± 0.00146
x2 = 0.782 | -0.06 ± 0.00134
x2 = 0.8433 | -0.0473 ± 0.00112
x2 = 0.8777 | -0.0396 ± 0.00098
x2 = 0.915 | -0.0282 ± 0.000813
x2 = 0.9556 | -0.0151 ± 0.000598

OCCc1ccccc1 [2-phenylethanol] + OCCOCCOCCOCCO
[2]
Conditions | excess molar enthalpy [kcal/mol]
x2 = 0.0281 | -0.0289 ± 0.000813
x2 = 0.0546 | -0.0488 ± 0.00115
x2 = 0.0797 | -0.0614 ± 0.00136
x2 = 0.1036 | -0.0687 ± 0.00148
x2 = 0.1478 | -0.0782 ± 0.00165
x2 = 0.1878 | -0.0817 ± 0.0017
x2 = 0.2575 | -0.0832 ± 0.00172
x2 = 0.3161 | -0.0835 ± 0.00174
x2 = 0.4095 | -0.0859 ± 0.00177
x2 = 0.5099 | -0.0878 ± 0.00182
x2 = 0.5811 | -0.0845 ± 0.00174
x2 = 0.6754 | -0.08 ± 0.00167
x2 = 0.7351 | -0.0724 ± 0.00155
x2 = 0.8063 | -0.0606 ± 0.00134
x2 = 0.8473 | -0.0507 ± 0.00117
x2 = 0.8928 | -0.042 ± 0.00103
x2 = 0.9433 | -0.0258 ± 0.000765

OCCOCCO [diethylene glycol]
[1]
Conditions | mass density [kg/m3]
298.15 K | 1112.38 ± 0.58
308.15 K | 1105.88 ± 0.58

OCCOCCOCCO [triethylene glycol]
[1]
Conditions | mass density [kg/m3]
298.15 K | 1119.78 ± 0.59
308.15 K | 1112.61 ± 0.58
